In US10098346B2, “Diphenyliodonium salts as sulfidogenesis inhibitors and antimicrobials” (Ecolab USA Inc., priority 2015, dated 2018):

Columns and labels:
Format in all cases: cell-based
[1] = tested on: hydrogen sulfide production by sulfur utilizing prokaryote; assay: Hydrogen sulfide test kit (HACH, Model HS-C) in injection water aliquots; settings: injection water (synthetic seawater, produced water, lactate, thiosulfate); 0.1-100 ppm; up to 305 days
Procedure: (§1) A hydrogen sulfide test kit (HACH, Model HS-C) and an AccuCount test kit (available from Nalco Champion) were used to test the efficacy of diphenyliodonium chloride (DPIC) and diphenyliodonium nitrate (DPIN) in 100 mL aliquots of injection water collected by mixing synthetic seawater, produced water from an oil and gas production facility off-shore California, USA, lactate, and thiosulfate. The results of the testing of DPIC at 11 days, 84 days, and 305 days at concentrations of 0.1 ppm, 1 ppm, 10 ppm, and 100 ppm are shown in FIG. 2. The results of the testing of DPIC at 84 days and 305 days at concentrations of 0.1 ppm, 1 ppm, and 10 ppm are shown in FIG. 3. The results of the testing of DPIC and DPIN at 1 day, 7 days, and 14 days at concentrations of 0.1 ppm, 1 ppm, and 10 ppm in synthetic seawater are shown in the FIG. 4. The results of testing of DPIC and DPIN at 4 hours, 1 day, and 30 days at concentrations of 10 ppm and 100 ppm in 80% produced water, 50% produced water, and 20% produced water are shown in FIG. 5.

active microbes = assay: AccuCount test kit, level of active microbes in injection water aliquots; settings: injection water (synthetic seawater, produced water, lactate, thiosulfate); 0.1-100 ppm; up to 305 days
Procedure: as §1

[2] = Next-generation DNA sequencing, relative abundance of each genus in treated samples; settings: DPIC 1 ppm - 305 Days
[3] = tested on: sulfur reducing prokaryotes; assay: as above; settings: 1 ppm, 305 days

SMILES: O=[N+]([O-])[O-].c1ccc([I+]c2ccccc2)cc1 [DPIN, diphenyliodonium nitrate]
- reducing the concentration hydrogen sulfide [1]: effective
- reducing the level of active microbes (active microbes): effective

SMILES: [Cl-].c1ccc([I+]c2ccccc2)cc1 [DPIC, diphenyliodonium chloride]
- reducing the concentration hydrogen sulfide [1]: effective
- Relative Abundance, Acholeplasma sp. (APB) [2]: 0.2%
- Relative Abundance, Citrobacter sp. (APB) [2]: 0.3%
- Relative Abundance, Cryptanaerobacter sp. (APB) [2]: 0.1%
- Relative Abundance, Kluyvera sp. (APB/GHB/NRB) [2]: 3.5%
- Relative Abundance, Mangrovibacter sp. (NRB) [2]: 0.2%
- Relative Abundance, Proteiniphilum sp. (APB) [2]: 0.3%
- Relative Abundance, Pseudomonas sp. (NRB/GHB) [2]: 0.5%
- Relative Abundance, Raoultella sp. (APB) [2]: 28.8%
- Relative Abundance, Serratia sp. (NRB/GHB) [2]: 59.3%
- Relative Abundance, Shimwellia sp. (APB) [2]: 6.7%
- Relative Abundance, Sphaerochaeta sp. (APB) [2]: 0.2%
- Relative Abundance, Thermovirga sp. (SRB) [2]: 0.1%
- sulfur reducing prokaryotes by DNA sequencing [3]: no detectable
- reducing the level of active microbes (active microbes): effective
